What all share (assay type): cell-based
Test [1] concerns the target T1, PTGER2 (EP2) (Homo sapiens, UniProt P43116).
T1 construct: host or cells: HEK 293 (PathHunter PTGER2 b-arrestin cell line)
The experiment in a line: hEP2 b-arrestin assay (PathHunter HEK 293 PTGER2 b-arrestin cells). As to conditions: antagonistic activity, beta-arrestin assay; read-out: hEP2 b-arr IC50. Summed up:
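Antagonism measured as inhibition of PGE2-driven β-arrestin 2 recruitment (enzyme fragment complementation, luminescence) in engineered HEK293 EP2 cells. Agonist: 5 μM PGE2, ~EC80, 120 min at 37 °C after 15 min compound preincubation; test range 10 μM-2 nM or 1 μM-0.2 nM, duplicates, IC50 fitted.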

The target of test [2] is T2, EP4 receptor (Homo sapiens, UniProt P35408).
T2 construct: BT549 breast cancer cells, express high endogenous EP4 levels and very low EP2 levels; host or cells: BT549 breast cancer cells
The experiment in a line: hEP4 cAMP assay (BT549 breast cancer cells, HTRF cAMP, PGE2 stimulation). Conditions: antagonistic activity, PGE2 6 nM (EC80). A digest of the protocol: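 BT549 cells, with endogenous EP4 and very low EP2, were preincubated 45 min at room temperature with compound in HBSS/HEPES/BSA buffer with 2 mM IBMX. They were then stimulated 30 min with 6 nM PGE2 (EC80). cAMP was measured by HTRF competitive immunoassay against a calibrator; IC50 from duplicate dose-response as % of DMSO control.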
(In general: cAMP levels reflect the balance of adenylyl cyclase and phosphodiesterase activity.)

Test [3] concerns the target T3, PTGER4 (EP4) (Homo sapiens, UniProt P35408).
T3 construct: host or cells: HEK 293 (PathHunter PTGER4 b-arrestin cell line)
The experiment in a line: hEP4 b-arrestin assay (PathHunter HEK 293 PTGER4 b-arrestin cells). As to conditions: antagonistic activity, beta-arrestin assay; read-out: hEP4 b-arr IC50. Summed up: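 β-Arrestin recruitment to EP4 was read as enzyme-fragment-complementation chemiluminescence in stably transfected HEK 293 cells. After 15 min compound preincubation at 37 °C (ranges 10 μM–2 nM or 1 μM–0.2 nM), cells were stimulated 120 min with PGE2 at 20 nM, its EC80. IC50 values were fitted from duplicates, with repeat measurements averaged.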

T2 sequence (P35408 whole entry): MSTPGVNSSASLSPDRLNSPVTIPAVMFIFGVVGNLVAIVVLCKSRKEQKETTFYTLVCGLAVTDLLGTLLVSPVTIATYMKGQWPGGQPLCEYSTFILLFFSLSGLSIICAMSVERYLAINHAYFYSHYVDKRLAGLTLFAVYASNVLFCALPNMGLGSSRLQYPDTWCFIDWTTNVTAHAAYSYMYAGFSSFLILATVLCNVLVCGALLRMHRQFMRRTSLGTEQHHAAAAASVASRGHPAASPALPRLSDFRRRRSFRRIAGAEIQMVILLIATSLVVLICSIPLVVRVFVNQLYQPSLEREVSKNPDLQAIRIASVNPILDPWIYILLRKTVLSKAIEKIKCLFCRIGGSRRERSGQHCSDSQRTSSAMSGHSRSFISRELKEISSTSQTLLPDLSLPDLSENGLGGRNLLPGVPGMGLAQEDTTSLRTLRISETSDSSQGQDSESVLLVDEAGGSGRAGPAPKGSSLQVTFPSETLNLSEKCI
T3 sequence (P35408 whole entry): as above
T1 sequence (P43116 whole entry): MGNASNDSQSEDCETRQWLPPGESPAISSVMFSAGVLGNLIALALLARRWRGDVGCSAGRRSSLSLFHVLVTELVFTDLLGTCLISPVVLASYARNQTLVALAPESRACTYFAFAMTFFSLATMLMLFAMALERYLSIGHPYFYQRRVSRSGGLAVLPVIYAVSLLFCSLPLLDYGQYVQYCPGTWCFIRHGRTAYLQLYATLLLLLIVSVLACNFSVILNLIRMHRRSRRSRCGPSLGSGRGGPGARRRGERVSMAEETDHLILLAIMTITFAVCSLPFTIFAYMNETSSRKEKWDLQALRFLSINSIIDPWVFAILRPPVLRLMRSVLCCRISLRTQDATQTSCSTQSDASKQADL

For the compound `Cc1sc2c(C)cc(F)cc2c1CCNc1cc(-c2ccc(C(=O)O)c(OC(F)F)c2)ncn1` [Example 115, 2-Difluoromethoxy-4-{6-[2-(5-fluoro-2,7-dimethyl-benzo[b]thiophen-3-yl)-ethylamino]-pyrimidin-4-yl}-benzoic acid], the IC50 in test [1] came out at 16 nM; in test [2], 60 nM; in test [3], 208 nM.
The like results for `COc1ccc(Cl)c2c(CCNc3cc(-c4ccc(C(=O)O)c(OC(F)F)c4)ncn3)c(C)sc12` [Example 116, 4-{6-[2-(4-Chloro-7-methoxy-2-methyl-benzo[b]thiophen-3-yl)-ethylamino]-pyrimidin-4-yl}-2-difluoromethoxy-benzoic acid] were, in that order, 30 nM, 223 nM and 297 nM.
The like results for `CCOc1cc(-c2cc(NCCc3c(C)sc4c(OC)ccc(F)c34)ncn2)ccc1OCC(=O)O` [Example 117, (2-Ethoxy-4-{6-[2-(4-fluoro-7-methoxy-2-methyl-benzo[b]thiophen-3-yl)-ethylamino]-pyrimidin-4-yl}-phenoxy)-acetic acid] were, in that order, 20 nM, 54 nM and 23 nM.
In the case of `CCOc1cc(-c2cc(NCCc3c(C)sc4c(C)ccc(F)c34)ncn2)ccc1OCC(=O)O` [Example 118, (2-Ethoxy-4-{6-[2-(4-fluoro-2,7-dimethyl-benzo[b]thiophen-3-yl)-ethylamino]-pyrimidin-4-yl}-phenoxy)-acetic acid], the figures for the IC50 in test [1], in test [2] and in test [3] were 16 nM, 87 nM and 29 nM, respectively.
For `CCOc1cc(-c2cc(NCCc3c(C)sc4c(C)c(F)ccc34)ncn2)ccc1OCC(=O)O` [Example 119, (2-Ethoxy-4-{6-[2-(6-fluoro-2,7-dimethyl-benzo[b]thiophen-3-yl)-ethylamino]-pyrimidin-4-yl}-phenoxy)-acetic acid] the same measures were 21 nM, 110 nM and 143 nM.
For `CCOc1cc(-c2cc(NCCc3c(C)oc4c(Cl)cccc34)ncn2)ccc1OCC(=O)O` [Example 120, (4-{6-[2-(7-Chloro-2-methyl-benzofuran-3-yl)-ethylamino]-pyrimidin-4-yl}-2-ethoxy-phenoxy)-acetic acid], the IC50 in test [1] came out at 29 nM; in test [2] it was 123 nM; in test [3], 290 nM.
`CCOc1cc(-c2cc(NCCc3c(C)oc4c(OC)cc(Cl)cc34)ncn2)ccc1OCC(=O)O` [Example 121, (4-{6-[2-(5-Chloro-7-methoxy-2-methyl-benzofuran-3-yl)-ethylamino]-pyrimidin-4-yl}-2-ethoxy-phenoxy)-acetic acid]: the IC50 is 27 nM in test [1], 129 nM in test [2] and 75 nM in test [3].
The like results for `CCOc1cc(-c2cc(NCCc3c(C)sc4c(C)cccc34)ncn2)ccc1OCC(=O)O` [Example 122, (4-{6-[2-(2,7-Dimethyl-benzo[b]thiophen-3-yl)-ethylamino]-pyrimidin-4-yl}-2-ethoxy-phenoxy)-acetic acid] were, in that order, 14 nM, 136 nM and 83 nM.
Consider `CCCCOc1cc(-c2cc(NCCc3c(C)sc4c(C)cc(F)cc34)ncn2)ccc1C(=O)O` [Example 127, 2-Butoxy-4-{6-[2-(5-fluoro-2,7-dimethyl-benzo[b]thiophen-3-yl)-ethylamino]-pyrimidin-4-yl}-benzoic acid], for which the results for the IC50 in test [1], in test [2] and in test [3] were 16 nM, 873 nM and 225 nM, respectively.
Consider `Cc1oc2ccccc2c1CCNc1cc(-c2ccc(C(=O)O)c(SC3CCC3)c2)ncn1` [Example 129, 2-Cyclobutylsulfanyl-4-{6-[2-(2-methyl-benzofuran-3-yl)-ethylamino]-pyrimidin-4-yl}-benzoic acid], for which the IC50 in test [1] was determined as 6 nM; in test [2], 795 nM; in test [3], 1410 nM.
For `Cc1sc2c(C)cccc2c1CCNc1cc(-c2ccc(C(=O)O)c(SC3CCC3)c2)ncn1` [Example 130, 2-Cyclobutylsulfanyl-4-{6-[2-(2,7-dimethyl-benzo[b]thiophen-3-yl)-ethylamino]-pyrimidin-4-yl}-benzoic acid] the same measures were 12 nM, 980 nM and 193 nM.
For `Cc1sc2c(C)cccc2c1CCNc1cc(-c2ccc(C(=O)O)c(SC3COC3)c2)ncn1` [Example 131, 4-{6-[2-(2,7-Dimethyl-benzo[b]thiophen-3-yl)-ethylamino]-pyrimidin-4-yl}-2-(oxetan-3-ylsulfanyl)-benzoic acid] the same measures were 12 nM, 625 nM and 1220 nM.
The like results for `O=C(O)c1ccc(-c2cc(NCCc3csc4ccccc34)ncn2)cc1OC1CCC1` [Example 132, 4-[6-(2-Benzo[b]thiophen-3-yl-ethylamino)-pyrimidin-4-yl]-2-cyclobutoxy-benzoic acid] were, in that order, 58 nM, 166 nM and 561 nM.
For the compound `COc1cc(Cl)cc2c(CCNc3cc(-c4ccc(C(=O)O)c(OC5CCC5)c4)ncn3)c(C)oc12` [Example 133, 4-{6-[2-(5-Chloro-7-methoxy-2-methyl-benzofuran-3-yl)-ethylamino]-pyrimidin-4-yl}-2-cyclobutoxy-benzoic acid], the IC50 came out at 25 nM in test [1], 170 nM in test [2] and 74 nM in test [3].
For `COc1ccc(F)c2c(CCNc3cc(-c4ccc(C(=O)O)c(OC5CCC5)c4)ncn3)c(C)sc12` [Example 134, 2-Cyclobutoxy-4-{6-[2-(4-fluoro-7-methoxy-2-methyl-benzo[b]thiophen-3-yl)-ethylamino]-pyrimidin-4-yl}-benzoic acid] the same measures were 27 nM, 194 nM and 893 nM.
As for `COc1ccc(Cl)c2c(CCNc3cc(-c4ccc(C(=O)O)c(OC5CCC5)c4)ncn3)c(C)sc12` [Example 135, 4-{6-[2-(4-Chloro-7-methoxy-2-methyl-benzo[b]thiophen-3-yl)-ethylamino]-pyrimidin-4-yl}-2-cyclobutoxy-benzoic acid], the IC50 in test [1] was 14 nM; in test [2], 198 nM; in test [3] it was 235 nM.
For `Cc1sc2c(C)ccc(F)c2c1CCNc1cc(-c2ccc(C(=O)O)c(OC3CCC3)c2)ncn1` [Example 136, 2-Cyclobutoxy-4-{6-[2-(4-fluoro-2,7-dimethyl-benzo[b]thiophen-3-yl)-ethylamino]-pyrimidin-4-yl}-benzoic acid], the results for the IC50 in test [1], in test [2] and in test [3] were 13 nM, 411 nM and 155 nM, respectively.
On to `Cc1oc2c(Cl)cccc2c1CCNc1cc(-c2ccc(C(=O)O)c(OC3CCC3)c2)ncn1` [Example 137, 4-{6-[2-(7-Chloro-2-methyl-benzofuran-3-yl)-ethylamino]-pyrimidin-4-yl}-2-cyclobutoxy-benzoic acid], for which the IC50 in test [1] turned out to be 15 nM; in test [2], 423 nM; in test [3] it was 258 nM.
For `Cc1sc2c(C)cc(F)cc2c1CCNc1cc(-c2ccc(C(=O)O)c(OC3CCC3)c2)ncn1` [Example 138, 2-Cyclobutoxy-4-{6-[2-(5-fluoro-2,7-dimethyl-benzo[b]thiophen-3-yl)-ethylamino]-pyrimidin-4-yl}-benzoic acid] the same measures were 14 nM, 478 nM and 269 nM.
The like results for `COc1ccc(F)c2c(CCNc3cc(-c4ccc(C(=O)O)c(OC5CCC5)c4)ncn3)c(C)oc12` [Example 139, 2-Cyclobutoxy-4-{6-[2-(4-fluoro-7-methoxy-2-methyl-benzofuran-3-yl)-ethylamino]-pyrimidin-4-yl}-benzoic acid] were, in that order, 51 nM, 481 nM and 209 nM.
For `Cc1oc2c(C)cc(F)cc2c1CCNc1cc(-c2ccc(C(=O)O)c(OC3CCC3)c2)ncn1` [Example 140, 2-Cyclobutoxy-4-{6-[2-(5-fluoro-2,7-dimethyl-benzofuran-3-yl)-ethylamino]-pyrimidin-4-yl}-benzoic acid] the same measures were 37 nM, 580 nM and 1420 nM.
Take `COc1cc(F)c(F)c2c(CCNc3cc(-c4ccc(C(=O)O)c(OC5CCC5)c4)ncn3)c(C)oc12` [Example 141, 2-Cyclobutoxy-4-{6-[2-(4,5-difluoro-7-methoxy-2-methyl-benzofuran-3-yl)-ethylamino]-pyrimidin-4-yl}-benzoic acid]: the IC50 was 140 nM in test [1], 582 nM in test [2] and 340 nM in test [3].
On to `CCOc1cc(-c2cc(NCCc3c(C)sc4c(C)cc(F)cc34)ncn2)ccc1-c1nnn[nH]1` [Example 142, {6-[3-Ethoxy-4-(1H-tetrazol-5-yl)-phenyl]-pyrimidin-4-yl}-[2-(5-fluoro-2,7-dimethyl-benzo[b]thiophen-3-yl)-ethyl]-amine], for which the IC50 in test [1] was 12 nM; in test [2] it was 105 nM; in test [3] it was 41 nM.

By IC50 is commonly meant the midpoint of a concentration-inhibition curve.

The record behind these values is patent publication US11325899B2, “Benzofurane and benzothiophene derivatives as PGE2 receptor modulators” (IDORSIA PHARMACEUTICALS LTD, priority 2017, dated 2022).
